In patent US8354431B2, “Aryl carboxylic acid cyclohexyl amide derivatives” (Novartis AG, priority 2007, dated 2013):

What was measured:
Human CCR5 = biological target: T1, Human CCR5 (Homo sapiens, UniProt P51681); experiment: CCR5 membrane binding assay ([I-125]MIP-1α); conditions: table does not name the assay; b437 says 'in these assays'
T1 construct: expressed in transfected cells; host or cells: CHO K1
Method: Human CCR5 is used to generate stable transfectants in CHO K1 cells. Membranes prepared from these CCR5 transfectants are used in a radioligand binding assay using 125-1-MIP-1α as a ligand and the compounds of formula I are tested for inhibitory activity. The data are reported as IC50, i.e. the concentration of compound required to achieve 50% inhibition of [I-125]MIP-1α binding. In this assay, compounds of formula I have an IC50 between 0.004 and 10 μM.

CCR2 receptor = experiment: Receptor occupancy of the CCR2 receptor over time (blood monocytes, FACS); format: in vivo; conditions: dose 10 mg/kg
Method: The Agents of the Invention typically have a favourable pharmacokinetic profile, i.e. such as a relatively fast elimination over time. A faster elimination is typically indicative for an improved tolerability or is typically associable with less side effects. Such may be assessed by determining for example the receptor occupancy of the CCR2 receptor over time.
Receptor occupancy assaying may be performed in 96-well plates. 45 microliters of freshly obtained blood samples are incubated with 5 microliter of a MCP-1 solution (several concentrations for assessing a biding curve). The concentration of said MCP-1 solution is from 0.01 to 100 nanomolar, whereby the dilutions are made in RPMI1640 with glutamax supplemented with 1% nonessential amino acids, sodium pyruvate, penicillin/streptomycin, […] beta-mercaptoethanol and 1% human albumin.
Said incubation is carried out for 30 min at 37° C., and is then stopped by adding 180 microliter BD FACS lysis solution followed by centrifugation. Said lysis addition and centrifugation is repeated once and the remaining cells are then washed with ice cold FACS buffer ([…] containing 2% FCS and 0.1% NaN3). Thereupon, the cells are stained with antibodies for FACS analysis.
The cells are now triple stained with FITC-conjugated anti-CD14, PE-conjugated anti-HLA-DR and APC-conjugated anti-CCR2. The antibodies are diluted into FACS buffer, supplemented with 3 mg/ml juman IgG, and the staining is performed in a total of 25 microliter for 30 min. on ice. The stained cells are washed twice with cold FACS buffer and then analyzed by flow cytometry using a FACScalibur and CellQuest software. The expression of CCR2 on CD-14- and HLA-DR-positive monocytes is determined and expressed as mean fluorescence intensity (MFI). The relative CCR2 expression is expressed as percent of control staining.

hCCR2b = biological target: T2, hCCR2b (Homo sapiens, UniProt P41597); experiment: CCR2 membrane binding assay (SPA, [125I] MCP-1); conditions: table does not name the assay; b437 says 'in these assays'
T2 construct: expressed in transfected cells; host or cells: CHO-dukX
T2 sequence (P41597 1-360 isoform P41597-2): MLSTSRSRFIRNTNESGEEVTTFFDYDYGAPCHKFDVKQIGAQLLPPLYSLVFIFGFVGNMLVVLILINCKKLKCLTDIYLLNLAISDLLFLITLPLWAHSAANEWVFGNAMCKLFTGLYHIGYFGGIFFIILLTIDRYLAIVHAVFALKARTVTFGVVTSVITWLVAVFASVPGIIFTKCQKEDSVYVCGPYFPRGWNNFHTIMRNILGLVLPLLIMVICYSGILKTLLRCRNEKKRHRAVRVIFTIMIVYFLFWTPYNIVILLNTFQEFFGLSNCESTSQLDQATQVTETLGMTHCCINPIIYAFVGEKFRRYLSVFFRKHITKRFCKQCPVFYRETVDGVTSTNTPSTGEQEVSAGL
Method: Transfected CHO-dukX cells stably expressing the hCCR2b gene are grown in MEM alpha medium to a confluency of between 70 and 80%. After discarding the medium, 30 ml ice-cold physiological buffer solution containing 1 mM EDTA are added and the cells removed from the plate using a scraper. The cell suspension is centrifuged at 800 g for 10′ at 4° C. and the cell pellet resuspended in buffer. Cell lysis is done using a Polytron PTI300D instrument at 28 000 RPM for 2 times 30 seconds on ice. Membranes are collected by centrifugation at 42 000 g for 20 minutes at 4° C. and subjected to a second round of lysis (Polytron, 28 000 RPM, 2×30 seconds on ice). Following centrifugation at 42 000 g for 20 minutes at 4° C. the membranes are resuspended in buffer at a protein concentration of 2 mg/ml and stored at −80° C. Ten millimolar stock solutions of test compounds in 100% DMSO are prepared. Test compounds are further diluted in buffer to yield the four-fold concentrated solutions for the tests that assayed a range of 10^−10 to 10^−5 M. The SPA assay is performed in a final volume of 200 μl per well in 96 well plates. The components are added per well in the following order: • 50 μl Buffer (+/−test compound) • 50 μl Wheat germ agglutinin-SPA beads (1.25 mg/well) in buffer • 50 μl CCR2B membrane suspension diluted with buffer to 0.04 mg/ml (2 μg/well), alternatively 50,000 cells per well • 50 μl [^125I] MCP-1 in buffer (60 pM final concentration, 2.5 μCi/plate)
After addition of all components the plate is sealed and incubated for 90 minutes at room temperature with constant shaking. Following incubation the plate is centrifuged at 1000 RPM in a Sorvall RC3B centrifuge for 4 minutes at room temperature and counted for 3 minutes per well in a TOP COUNT instrument (Packard). The quench-corrected counts are used for the analysis of radioligand binding.

T1 sequence (P51681 whole entry): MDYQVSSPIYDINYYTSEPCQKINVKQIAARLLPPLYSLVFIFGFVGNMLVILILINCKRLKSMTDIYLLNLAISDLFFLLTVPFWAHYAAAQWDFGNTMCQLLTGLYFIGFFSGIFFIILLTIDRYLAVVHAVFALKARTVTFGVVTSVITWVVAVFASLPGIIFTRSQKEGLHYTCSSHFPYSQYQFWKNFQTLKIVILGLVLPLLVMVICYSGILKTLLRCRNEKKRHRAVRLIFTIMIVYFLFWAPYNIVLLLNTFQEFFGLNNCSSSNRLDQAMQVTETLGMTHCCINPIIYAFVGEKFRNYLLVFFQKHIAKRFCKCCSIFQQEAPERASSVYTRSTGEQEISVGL

In the case of `C[C@H]1CN(CC[C@]2(O)CC[C@@H](NC(=O)c3cc4c(OCc5coc6cc(OCC7CC7)ccc56)cccc4[nH]3)CC2)CC[C@@H]1O` [Example 15, 4-(6-Cyclopropylmethoxy-benzofuran-3-ylmethoxy)-1H-indole-2-carboxylic acid {4-hydroxy-4-[2-((3S,4S)-4-hydroxy-3-methyl-piperidin-1-yl)-ethyl]-cyclohexyl}-amide], the IC50 (Human CCR5) is reported as 4.8 nM, the “Receptor blockade After 2 hrs in %” value (CCR2 receptor) is reported as 103.2% and the “Receptor blockade After 24 hrs in %” value (CCR2 receptor) is reported as 42.6%. For the same compound, the IC50 (hCCR2b) was 0.4 nM.
In the case of `CCOCCOc1ccc2c(COc3cccc4[nH]c(C(=O)N[C@H]5CC[C@](O)(CCN6CC[C@H](O)[C@@H](C)C6)CC5)cc34)coc2c1` [Example 16, 4-[6-(2-Ethoxy-ethoxy)-benzofuran-3-ylmethoxy]-1H-indole-2-carboxylic acid {4-hydroxy-4-[2-((3S,4S)-4-hydroxy-3-methyl-piperidin-1-yl)-ethyl]-cyclohexyl}-amide], the IC50 (Human CCR5) is reported as 2.9 nM, the “Receptor blockade After 2 hrs in %” value (CCR2 receptor) is reported as 78.1% and the “Receptor blockade After 24 hrs in %” value (CCR2 receptor) is reported as 21.6%. The IC50 (hCCR2b) was 0.8 nM.
In the case of `CC(C)OCCOc1ccc2c(COc3cccc4[nH]c(C(=O)N[C@H]5CC[C@](O)(CCN6CC[C@H](O)[C@@H](C)C6)CC5)cc34)coc2c1` [Example 18, 4-[6-(2-Isopropoxy-ethoxy)-benzofuran-3-ylmethoxy]-1H-indole-2-carboxylic acid {4-hydroxy-4-[2-((3S,4S)-4-hydroxy-3-methyl-piperidin-1-yl)-ethyl]-cyclohexyl}-amide], the IC50 (Human CCR5) is reported as 3.3 nM, the “Receptor blockade After 2 hrs in %” value (CCR2 receptor) is reported as 88.2% and the “Receptor blockade After 24 hrs in %” value (CCR2 receptor) is reported as 43.5%. For the same compound, the IC50 (hCCR2b) was 0.2 nM.
